In ChEMBL document CHEMBL1208713, “Coumarins incorporating hydroxy- and chloro-moieties selectively inhibit the transmembrane, tumor-associated carbonic anhydrase isoforms IX and XII over the cytosolic ones I and II” (Bioorg Med Chem Lett, 2010):

Assays:
[1] = target: Carbonic anhydrase 12 (Homo sapiens) (UniProt O43570)
Description: Inhibition of human CA12 by CO2 hydration assay

[2] = target: Carbonic anhydrase 9 (Homo sapiens) (UniProt Q16790); assay: Inhibition of human CA9 by CO2 hydration assay
[3] = target: Carbonic anhydrase 2 (Homo sapiens) (UniProt P00918)
Description: Inhibition of human CA2 by CO2 hydration assay

[4] = target: Carbonic anhydrase 1 (Homo sapiens) (UniProt P00915)
Carbonic anhydrase 1 (Homo sapiens), sequence (P00915 2-261 limits assumed): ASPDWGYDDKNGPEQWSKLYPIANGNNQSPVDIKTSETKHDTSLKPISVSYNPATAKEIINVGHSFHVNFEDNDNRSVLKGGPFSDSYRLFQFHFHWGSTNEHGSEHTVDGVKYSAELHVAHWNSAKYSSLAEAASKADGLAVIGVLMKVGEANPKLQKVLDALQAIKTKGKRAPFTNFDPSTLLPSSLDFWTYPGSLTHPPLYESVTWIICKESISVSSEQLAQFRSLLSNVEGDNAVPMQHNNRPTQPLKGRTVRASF
Description: Inhibition of human CA1 by CO2 hydration assay

Carbonic anhydrase 12 (Homo sapiens), sequence (O43570 whole entry): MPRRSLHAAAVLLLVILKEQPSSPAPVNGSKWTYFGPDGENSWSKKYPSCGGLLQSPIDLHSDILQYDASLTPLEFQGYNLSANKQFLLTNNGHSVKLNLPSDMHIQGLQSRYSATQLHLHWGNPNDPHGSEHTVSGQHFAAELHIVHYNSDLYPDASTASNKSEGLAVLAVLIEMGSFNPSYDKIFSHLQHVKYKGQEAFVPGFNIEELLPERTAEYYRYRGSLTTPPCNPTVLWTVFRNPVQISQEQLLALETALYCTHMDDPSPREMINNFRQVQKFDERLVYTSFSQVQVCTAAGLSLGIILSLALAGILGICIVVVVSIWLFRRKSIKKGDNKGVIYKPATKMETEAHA

SMILES | Ki [1] [µM] | Ki [2] [µM] | Ki [3] [µM] | Ki [4] [µM]
O=c1ccc2ccccc2o1 | > 100 | > 100 |  | 
O=c1cc(CCl)c2ccc(Cl)cc2o1 | 0.735 | 0.359 | > 100 | 72.8
O=c1oc2ccccc2cc1O | 9.6 | 0.508 | > 100 | 79.4
O=c1cc(O)c2ccccc2o1 | 6.3 | 0.418 | > 100 | 95
O=c1cc(Cl)c2ccccc2o1 | 7.03 | 4.92 | > 100 | 86.9
O=c1ccc2ccc(O)cc2o1 |  | 0.482 |  | 58.4
O=c1cc(CCl)c2ccc(O)cc2o1 | 8.02 | 0.478 | > 100 | > 100
O=c1ccc2cc(O)ccc2o1 | 0.683 | 0.198 | > 100 | > 100
